Activity calls are given as the source filed them.
Experiments:
[1] = molecular target: T1, Serine/threonine-protein phosphatase (Candida dubliniensis (strain CD36 / CBS 7987 / NCPF 3949 / NRRLY-17841) (Yeast), UniProt B9W6M3); assay: calcineurin pathway inhibitors in yeast reporter, dose response, S. cerevisiae, CDRE-lacZ, luminescence, secondary (AID 2388); type: functional, cell-based;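 note: yeast reporter cells carrying a calcineurin-responsive lacZ construct stimulated with calcium chloride; luminescent beta-galactosidase reporter signal in whole cells rather than isolated phosphatase activity; potency for inhibition where a drop in reporter signal means calcineurin blockade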
T1 sequence (B9W6M3 whole entry): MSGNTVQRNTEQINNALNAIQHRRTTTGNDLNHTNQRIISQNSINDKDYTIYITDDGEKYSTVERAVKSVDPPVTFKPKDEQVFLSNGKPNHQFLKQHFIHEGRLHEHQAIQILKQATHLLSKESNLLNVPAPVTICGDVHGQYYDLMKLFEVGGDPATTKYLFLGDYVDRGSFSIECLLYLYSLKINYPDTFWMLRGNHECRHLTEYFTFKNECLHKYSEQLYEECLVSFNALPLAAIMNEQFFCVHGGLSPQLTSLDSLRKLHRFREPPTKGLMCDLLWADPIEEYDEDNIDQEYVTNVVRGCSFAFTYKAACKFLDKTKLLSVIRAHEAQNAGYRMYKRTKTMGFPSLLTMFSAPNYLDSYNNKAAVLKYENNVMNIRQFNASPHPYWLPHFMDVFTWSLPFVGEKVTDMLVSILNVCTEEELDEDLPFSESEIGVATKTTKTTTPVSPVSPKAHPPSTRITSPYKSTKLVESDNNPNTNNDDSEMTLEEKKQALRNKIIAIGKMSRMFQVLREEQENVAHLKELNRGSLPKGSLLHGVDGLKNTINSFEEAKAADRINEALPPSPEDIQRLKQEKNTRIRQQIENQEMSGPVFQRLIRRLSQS

[2] = C. albicans growth with fluconazole, confirmation, fluorescence, retest (AID 2467); type: functional, cell-based
[3] = NIH-3T3 fibroblast cytotoxicity, dose response, cytotoxicity control, cell-based, fluorescence, Alamar Blue, secondary assay (AID 2327); type: functional;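 note: NIH-3T3 mouse fibroblasts cultured with fluconazole at 8 µg/mL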
[4] = molecular target: ATP-dependent molecular chaperone HSP82 (Candida albicans (strain WO-1) (Yeast), UniProt C4YTQ8); assay: loss of DOC-induced GRE-beta-galactosidase reporter signal, dose response, Hsp90 inhibitor project, S. cerevisiae, luminescence (AID 2400); type: functional, cell-based;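 note: beta-galactosidase luminescence from glucocorticoid response element reporter as proxy for Hsp90 function; inhibitor potency where signal loss means Hsp90 inhibition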
Sequence of ATP-dependent molecular chaperone HSP82 (C4YTQ8 whole entry): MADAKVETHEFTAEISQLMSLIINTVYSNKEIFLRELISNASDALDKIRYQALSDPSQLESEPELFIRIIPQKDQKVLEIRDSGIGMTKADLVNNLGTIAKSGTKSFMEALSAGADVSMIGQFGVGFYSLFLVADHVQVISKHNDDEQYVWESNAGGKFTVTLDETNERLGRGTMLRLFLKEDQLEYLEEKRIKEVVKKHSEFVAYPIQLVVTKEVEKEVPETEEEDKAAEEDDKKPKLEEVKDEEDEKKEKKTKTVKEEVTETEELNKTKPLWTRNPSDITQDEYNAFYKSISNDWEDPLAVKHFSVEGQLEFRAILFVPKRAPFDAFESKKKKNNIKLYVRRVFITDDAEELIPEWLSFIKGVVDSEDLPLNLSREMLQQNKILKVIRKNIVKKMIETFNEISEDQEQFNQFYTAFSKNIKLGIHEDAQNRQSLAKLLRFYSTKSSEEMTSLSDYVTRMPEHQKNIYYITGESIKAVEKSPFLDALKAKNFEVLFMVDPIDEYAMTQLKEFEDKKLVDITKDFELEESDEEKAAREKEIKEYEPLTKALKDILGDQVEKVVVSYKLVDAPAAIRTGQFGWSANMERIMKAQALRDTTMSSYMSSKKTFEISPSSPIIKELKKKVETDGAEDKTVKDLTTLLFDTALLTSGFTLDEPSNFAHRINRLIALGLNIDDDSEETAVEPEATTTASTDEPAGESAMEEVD

Prothrombin = Prothrombin (Homo sapiens, UniProt P00734); assay: Thrombin 1536 HTS Dose Response Confirmation. [Related pubchem assays: 1046 (Thrombin 1536 HTS; hits were confirmed in this assay)]; type: functional
Coagulation factor XII = molecular target: T2, Coagulation factor XII (Homo sapiens, UniProt P00748); type: functional;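 note: activated factor XIIa alpha cleaving a fluorogenic AMC peptide substrate; inhibitor potency from loss of enzyme activity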
T2 sequence (P00748 whole entry): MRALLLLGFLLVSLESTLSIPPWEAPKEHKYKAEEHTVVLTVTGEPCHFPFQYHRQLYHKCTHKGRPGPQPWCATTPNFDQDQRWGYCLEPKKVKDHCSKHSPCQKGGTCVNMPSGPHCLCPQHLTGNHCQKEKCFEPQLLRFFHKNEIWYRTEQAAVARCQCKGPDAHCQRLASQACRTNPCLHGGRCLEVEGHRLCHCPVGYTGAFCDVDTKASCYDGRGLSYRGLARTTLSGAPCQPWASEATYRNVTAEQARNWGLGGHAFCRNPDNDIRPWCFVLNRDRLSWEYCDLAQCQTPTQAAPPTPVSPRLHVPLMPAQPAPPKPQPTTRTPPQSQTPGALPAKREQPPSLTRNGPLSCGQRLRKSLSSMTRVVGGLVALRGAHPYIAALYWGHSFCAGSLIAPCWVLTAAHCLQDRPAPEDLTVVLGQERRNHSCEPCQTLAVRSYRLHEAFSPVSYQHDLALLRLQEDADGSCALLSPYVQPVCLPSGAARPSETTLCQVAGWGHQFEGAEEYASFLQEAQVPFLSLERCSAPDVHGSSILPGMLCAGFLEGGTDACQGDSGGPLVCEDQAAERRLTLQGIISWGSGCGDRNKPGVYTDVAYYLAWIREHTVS

Cytochrome P450 3A4 = Cytochrome P450 3A4 (Homo sapiens, UniProt P08684);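 note: CYP3A4 tested as one member of a cytochrome P450 panel screen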
Sequence of Cytochrome P450 3A4 (P08684 whole entry): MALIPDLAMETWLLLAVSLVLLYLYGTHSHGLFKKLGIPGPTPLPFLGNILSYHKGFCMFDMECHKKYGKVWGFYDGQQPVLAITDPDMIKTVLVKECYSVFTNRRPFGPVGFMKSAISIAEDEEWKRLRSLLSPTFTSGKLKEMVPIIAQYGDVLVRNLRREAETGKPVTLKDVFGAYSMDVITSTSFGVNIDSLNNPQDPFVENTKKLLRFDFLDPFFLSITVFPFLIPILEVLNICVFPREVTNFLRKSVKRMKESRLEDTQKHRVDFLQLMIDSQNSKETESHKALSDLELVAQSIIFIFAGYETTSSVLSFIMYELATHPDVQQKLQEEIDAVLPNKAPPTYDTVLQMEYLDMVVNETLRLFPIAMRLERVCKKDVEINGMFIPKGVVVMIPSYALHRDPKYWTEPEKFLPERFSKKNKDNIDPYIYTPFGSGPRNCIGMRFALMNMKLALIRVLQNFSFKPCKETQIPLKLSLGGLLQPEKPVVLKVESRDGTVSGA

Cytochrome P450 2D6 = Cytochrome P450 2D6 (Homo sapiens, UniProt P10635);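 note: CYP2D6 member of a cytochrome P450 panel assay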
Sequence of Cytochrome P450 2D6 (P10635 whole entry): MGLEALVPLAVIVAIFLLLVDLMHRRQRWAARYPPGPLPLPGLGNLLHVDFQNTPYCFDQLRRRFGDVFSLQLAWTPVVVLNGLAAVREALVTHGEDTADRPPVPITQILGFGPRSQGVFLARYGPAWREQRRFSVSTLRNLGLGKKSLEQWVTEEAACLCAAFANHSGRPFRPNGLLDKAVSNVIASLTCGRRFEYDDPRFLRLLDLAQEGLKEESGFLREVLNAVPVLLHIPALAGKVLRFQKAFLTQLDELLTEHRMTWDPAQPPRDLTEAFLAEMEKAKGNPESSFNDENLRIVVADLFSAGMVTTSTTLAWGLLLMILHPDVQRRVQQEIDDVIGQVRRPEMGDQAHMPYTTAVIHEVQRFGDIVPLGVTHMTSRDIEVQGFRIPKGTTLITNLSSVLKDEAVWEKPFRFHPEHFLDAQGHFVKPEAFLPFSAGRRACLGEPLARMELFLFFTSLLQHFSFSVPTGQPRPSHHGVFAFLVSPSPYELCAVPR

Streptokinase A = molecular target: T3, Streptokinase A (Streptococcus pyogenes serotype M1, UniProt P10520); assay: S. pyogenes streptokinase expression inhibitors, potency, dose response, plasminogen activation absorbance, OD405 (AID 1914); type: functional, Streptococcus pyogenes M1 GAS;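 note: secreted streptokinase activity via plasminogen activation per viability signal from cell pellet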
T3 sequence (P10520 whole entry): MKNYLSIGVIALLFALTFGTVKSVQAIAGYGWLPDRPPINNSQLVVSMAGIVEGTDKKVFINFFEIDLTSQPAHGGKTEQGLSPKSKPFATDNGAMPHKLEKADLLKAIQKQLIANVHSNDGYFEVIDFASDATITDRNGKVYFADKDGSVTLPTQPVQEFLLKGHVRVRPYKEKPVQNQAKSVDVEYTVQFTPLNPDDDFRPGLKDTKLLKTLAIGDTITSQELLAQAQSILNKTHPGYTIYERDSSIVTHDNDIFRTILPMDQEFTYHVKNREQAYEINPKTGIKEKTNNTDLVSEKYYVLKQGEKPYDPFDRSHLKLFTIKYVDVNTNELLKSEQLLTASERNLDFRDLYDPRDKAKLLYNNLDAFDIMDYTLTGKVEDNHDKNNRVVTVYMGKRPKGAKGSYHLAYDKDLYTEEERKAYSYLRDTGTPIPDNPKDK

[5] = system: Streptococcus sp. 'group A'; assay: growth inhibition of control SK(-) GAS strain, dose response, counter-screen for streptokinase expression inhibitor project, luminescence, kanamycin, BacTiterGlo, confirmation (AID 1900); type: functional, organism-based
Streptococcus = assay: Group A Streptococcus viability loss, dose response, counter-screen for streptokinase expression inhibitor project, luminescence, BacTiterGlo (AID 1915); type: functional, organism-based;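 note: potency for reduction of bacterial viability or growth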
Nonstructural protein 1 = Nonstructural protein 1 (Influenza A virus, UniProt Q194T2); type: functional, Influenza A virus (A/California/07/2009(H1N1))
Sequence of Nonstructural protein 1 (Q194T2 whole entry): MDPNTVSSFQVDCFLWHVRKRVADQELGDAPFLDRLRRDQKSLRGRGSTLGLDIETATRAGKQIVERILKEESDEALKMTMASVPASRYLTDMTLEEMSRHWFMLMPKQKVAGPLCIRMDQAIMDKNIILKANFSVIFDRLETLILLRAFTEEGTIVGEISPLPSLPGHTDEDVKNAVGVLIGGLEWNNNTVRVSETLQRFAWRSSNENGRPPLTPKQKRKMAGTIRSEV

H9c2 = assay: cells; type: functional, cell-based; details: Rattus norvegicus, H9c2, Myocardium;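 note: confirmatory concentration-response retest of ultra-high-throughput screening hits for modulation of myocardial damage; cell death induced by hydrogen peroxide oxidative stress; compound pretreatment for 60 min then peroxide exposure for 2 h; potency is for protecting the cells against peroxide damage rather than for killing them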
Vero = assay: cells; type: functional; details: Chlorocebus sabaeus
Cytochrome P450 2C9 = Cytochrome P450 2C9 (Homo sapiens, UniProt P11712)
Sequence of Cytochrome P450 2C9 (P11712 whole entry): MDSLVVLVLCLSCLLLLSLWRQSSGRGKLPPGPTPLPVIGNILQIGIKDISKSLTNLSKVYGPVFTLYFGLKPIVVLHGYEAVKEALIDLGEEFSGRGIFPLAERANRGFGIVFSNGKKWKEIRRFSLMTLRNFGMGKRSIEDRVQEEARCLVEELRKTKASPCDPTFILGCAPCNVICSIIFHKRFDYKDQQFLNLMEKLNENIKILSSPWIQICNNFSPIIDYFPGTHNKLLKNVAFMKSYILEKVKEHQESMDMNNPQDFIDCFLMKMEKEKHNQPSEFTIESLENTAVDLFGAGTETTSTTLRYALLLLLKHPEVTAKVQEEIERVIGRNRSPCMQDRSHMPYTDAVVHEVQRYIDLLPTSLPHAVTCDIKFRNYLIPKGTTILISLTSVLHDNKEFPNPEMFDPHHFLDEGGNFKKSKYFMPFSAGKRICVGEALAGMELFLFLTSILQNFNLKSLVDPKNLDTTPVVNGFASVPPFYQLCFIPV

Cytochrome P450 2C19 = Cytochrome P450 2C19 (Homo sapiens, UniProt P33261); assay: Cytochrome panel assay with activity outcomes. Panel member name: p450-cyp2c19 Compounds with AC50 equal or less than 10 uM are considered active; type: functional; details: read-out: AC50
Sequence of Cytochrome P450 2C19 (P33261 whole entry): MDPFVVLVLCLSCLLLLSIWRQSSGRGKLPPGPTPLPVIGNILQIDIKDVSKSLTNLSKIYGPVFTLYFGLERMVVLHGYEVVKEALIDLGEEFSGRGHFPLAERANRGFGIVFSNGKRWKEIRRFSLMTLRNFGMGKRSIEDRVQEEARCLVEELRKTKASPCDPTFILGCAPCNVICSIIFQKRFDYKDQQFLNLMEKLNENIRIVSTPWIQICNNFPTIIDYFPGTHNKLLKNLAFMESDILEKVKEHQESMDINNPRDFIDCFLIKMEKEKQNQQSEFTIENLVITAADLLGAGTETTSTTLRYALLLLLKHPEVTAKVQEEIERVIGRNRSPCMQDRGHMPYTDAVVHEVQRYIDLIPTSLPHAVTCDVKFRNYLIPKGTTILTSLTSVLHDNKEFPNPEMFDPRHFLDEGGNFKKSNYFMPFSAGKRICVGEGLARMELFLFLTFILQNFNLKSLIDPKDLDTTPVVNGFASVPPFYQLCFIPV

[6] = molecular target: T4, Histone-lysine N-methyltransferase NSD2 (Homo sapiens, UniProt O96028); type: biochemical
T4 sequence (O96028 whole entry): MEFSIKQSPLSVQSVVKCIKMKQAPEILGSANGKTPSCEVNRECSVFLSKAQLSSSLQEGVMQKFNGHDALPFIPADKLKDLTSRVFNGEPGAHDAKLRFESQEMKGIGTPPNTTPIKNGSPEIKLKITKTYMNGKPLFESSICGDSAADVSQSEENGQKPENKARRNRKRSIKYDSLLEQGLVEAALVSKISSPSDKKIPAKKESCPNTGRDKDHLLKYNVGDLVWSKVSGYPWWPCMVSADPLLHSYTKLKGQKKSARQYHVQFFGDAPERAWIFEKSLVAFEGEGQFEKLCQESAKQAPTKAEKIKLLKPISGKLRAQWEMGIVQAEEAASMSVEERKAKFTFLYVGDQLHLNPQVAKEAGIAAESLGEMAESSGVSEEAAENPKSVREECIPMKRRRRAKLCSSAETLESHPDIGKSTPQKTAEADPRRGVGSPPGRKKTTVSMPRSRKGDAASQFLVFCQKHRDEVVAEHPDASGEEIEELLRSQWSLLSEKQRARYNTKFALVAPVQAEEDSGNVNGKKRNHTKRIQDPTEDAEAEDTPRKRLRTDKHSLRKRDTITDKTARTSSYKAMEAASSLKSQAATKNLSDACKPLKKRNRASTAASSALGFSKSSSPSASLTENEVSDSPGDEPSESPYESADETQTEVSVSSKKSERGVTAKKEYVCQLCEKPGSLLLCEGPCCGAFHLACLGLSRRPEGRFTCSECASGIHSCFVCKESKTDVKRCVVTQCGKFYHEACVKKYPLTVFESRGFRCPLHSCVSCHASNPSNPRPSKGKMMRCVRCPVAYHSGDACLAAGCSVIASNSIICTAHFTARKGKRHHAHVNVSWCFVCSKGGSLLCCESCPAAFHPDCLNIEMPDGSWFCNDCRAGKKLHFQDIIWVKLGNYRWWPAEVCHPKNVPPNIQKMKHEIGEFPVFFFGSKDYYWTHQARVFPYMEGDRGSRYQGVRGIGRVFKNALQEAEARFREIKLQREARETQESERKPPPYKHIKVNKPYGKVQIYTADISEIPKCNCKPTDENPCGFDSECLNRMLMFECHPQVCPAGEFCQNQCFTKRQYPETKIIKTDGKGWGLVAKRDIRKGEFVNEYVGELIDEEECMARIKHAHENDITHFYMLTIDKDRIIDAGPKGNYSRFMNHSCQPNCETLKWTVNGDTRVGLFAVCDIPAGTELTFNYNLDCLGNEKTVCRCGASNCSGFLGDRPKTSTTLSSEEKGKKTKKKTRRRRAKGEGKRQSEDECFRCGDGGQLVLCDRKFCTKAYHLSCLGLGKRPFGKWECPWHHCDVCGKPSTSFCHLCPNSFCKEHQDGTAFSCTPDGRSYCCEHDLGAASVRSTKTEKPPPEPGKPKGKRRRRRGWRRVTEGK

[7] = molecular target: T5, Mannose-6-phosphate isomerase (Homo sapiens, UniProt P34949); assay: human PMI inhibitors, high substrate, primary screen, biochemical, fluorescence intensity, high mannose 6-phosphate (AID 1220)
T5 sequence (P34949 whole entry): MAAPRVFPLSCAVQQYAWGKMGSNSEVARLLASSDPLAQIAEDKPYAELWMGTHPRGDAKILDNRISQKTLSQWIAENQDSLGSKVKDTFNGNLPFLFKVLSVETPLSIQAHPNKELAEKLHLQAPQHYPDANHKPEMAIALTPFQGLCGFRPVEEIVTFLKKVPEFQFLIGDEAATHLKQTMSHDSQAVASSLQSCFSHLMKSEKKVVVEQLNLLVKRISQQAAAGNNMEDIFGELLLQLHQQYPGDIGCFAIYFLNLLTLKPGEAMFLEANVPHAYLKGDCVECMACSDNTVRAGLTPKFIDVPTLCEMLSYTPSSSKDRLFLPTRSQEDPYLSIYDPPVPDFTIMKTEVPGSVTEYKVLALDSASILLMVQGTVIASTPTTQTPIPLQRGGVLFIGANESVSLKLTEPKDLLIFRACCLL

cells [8] = type: functional, cell-based
cells [9] = type: functional, cell-based; remark: listed apart in the source

COc1ccc(-n2nc(C(=O)NCC(=O)N3CCN(c4ccc(F)cc4)CC3)c3ccccc3c2=O)c(OC)c1
EC50 [1]: > 180 µM (inactive) | EC50 [2]: 0.642 µM (active) | EC50 [3]: > 150 µM (inactive) | EC50 [4]: > 150 µM (inactive)

Cc1nn(C)c(C)c1S(=O)(=O)N1CCC(C(=O)NCCC2=CCCCC2)CC1
IC50 (Prothrombin): > 50 µM (not active) | IC50 (Coagulation factor XII): > 50 µM (inactive)

Cc1ccc2[nH]c(/C(C#N)=C\c3ccc(OC(=O)c4cccs4)cc3)nc2c1
EC50 [1]: > 180 µM (inactive) | EC50 [2]: 5.29 µM (active) | AC50 (Cytochrome P450 3A4): 14.1 µM (inconclusive) | AC50 (Cytochrome P450 2D6): 3.55 µM (inconclusive) | EC50 [3]: 17.2 µM (inconclusive) | EC50 [4]: 23.3 µM (active)

Cc1cc(C)n(-c2nnc(C)n2NS(=O)(=O)c2ccc(F)cc2)n1
IC50 (Coagulation factor XII): > 50 µM (inactive)

CS(=O)(=O)c1ccc2nc(NC(=O)c3ccc(NS(=O)(=O)c4cccc([N+](=O)[O-])c4)cc3)sc2c1
EC50 (Streptokinase A): > 150 µM (not active) | IC50 (Prothrombin): > 50 µM (not active) | EC50 [5]: 2.32 µM (active) | EC50 (Streptococcus): 12 µM (active)

O=C(O)Cc1ccc(NC(=O)CCN2C(=O)c3ccc([N+](=O)[O-])cc3C2=O)cc1
IC50 (Coagulation factor XII): > 50 µM (inactive)

CCOc1ccc(OCC)c(NC(=O)CCS(=O)(=O)c2ccc(Br)s2)c1
IC50 (Prothrombin): 3.1 µM (active)

O=C1SCCC1NC(=O)C(c1ccccc1)c1ccccc1 (configuration not stated)
IC50 (Coagulation factor XII): > 50 µM (inactive)

Cc1nnc2c(-c3ccccc3)nc3ccccc3n12
IC50 (Prothrombin): > 50 µM (not active)

O=C(c1cc2ccccc2cc1O)N1CCN(c2ccccc2O)CC1
EC50 [1]: > 180 µM (inactive) | EC50 [2]: 0.274 µM (active) | EC50 (Streptokinase A): > 150 µM (not active) | EC50 [3]: > 150 µM (inactive) | EC50 [5]: 24.3 µM (active) | EC50 (Streptococcus): 110 µM (active) | EC50 [4]: > 150 µM (inactive)

Cc1ccccc1NC(=O)Nc1ccccc1Br
IC50 (Prothrombin): > 50 µM (not active)

O=[N+]([O-])c1ccc(O)c(Nc2c([N+](=O)[O-])ccc3nonc23)c1
IC50 (Nonstructural protein 1): 64.5 µM (active)

O=c1oc(-c2ccco2)nc2c1cnn2-c1ccccc1
IC50 (Coagulation factor XII): 18.2 µM (active) | IC50 (H9c2): > 79 µM (inactive)

O=C(CC1CCCC1)NNC(=O)c1ccccc1O
CC50 (Vero): > 25 µM (active)

Nc1cccc2cnccc12
AC50 (Cytochrome P450 2D6): 22.4 µM (inconclusive) | AC50 (Cytochrome P450 2C9): 28.2 µM (inconclusive) | AC50 (Cytochrome P450 2C19): 20 µM (inconclusive) | AC50 [6]: > 20 µM (inactive) | IC50 [7]: > 50 µM (not active)

Cc1[nH]n(-c2ccccc2)c(=O)c1N=Nc1ccc2c(c1)OCCO2
IC50 (Nonstructural protein 1): 41.2 µM (active) | EC50 (cells [8]): > 350 µM (not active) | EC50 (cells [9]): > 350 µM (not active)

O=C(CCc1ccc(O)cc1)N/N=C/c1coc2ccccc2c1=O
IC50 (Prothrombin): 6.25 µM (active)

Reference: ChEMBL document CHEMBL1201862, “PubChem BioAssay data set” (2004)
